This passage reports DC50 results from patent publication US20260327204A1, “DEGRADERS OF CYCLIN-DEPENDENT KINASE 12/13, COMPOSITIONS, AND USES THEREOF” (ZHEJIANG UNIVERSITY, priority 2023, published 2026).

For experiment [1], the target named is CDK12 (Homo sapiens, UniProt Q9NYV4). The experiment is described as follows: Western blot degradation of CDK12 (Example 3). Format: cell-based. The arrangement: degradation of CDK12/13 protein in leukemia cells KASUMI-1, MV4-11, and Jurkat; endogenous in cells. Conditions: DC50 classes; cell line not given; read-out: CDK12 degradation Activity. (In general: Immunoblotting shows a protein as a band on a membrane.)
Chain of CDK12 (Q9NYV4 whole entry): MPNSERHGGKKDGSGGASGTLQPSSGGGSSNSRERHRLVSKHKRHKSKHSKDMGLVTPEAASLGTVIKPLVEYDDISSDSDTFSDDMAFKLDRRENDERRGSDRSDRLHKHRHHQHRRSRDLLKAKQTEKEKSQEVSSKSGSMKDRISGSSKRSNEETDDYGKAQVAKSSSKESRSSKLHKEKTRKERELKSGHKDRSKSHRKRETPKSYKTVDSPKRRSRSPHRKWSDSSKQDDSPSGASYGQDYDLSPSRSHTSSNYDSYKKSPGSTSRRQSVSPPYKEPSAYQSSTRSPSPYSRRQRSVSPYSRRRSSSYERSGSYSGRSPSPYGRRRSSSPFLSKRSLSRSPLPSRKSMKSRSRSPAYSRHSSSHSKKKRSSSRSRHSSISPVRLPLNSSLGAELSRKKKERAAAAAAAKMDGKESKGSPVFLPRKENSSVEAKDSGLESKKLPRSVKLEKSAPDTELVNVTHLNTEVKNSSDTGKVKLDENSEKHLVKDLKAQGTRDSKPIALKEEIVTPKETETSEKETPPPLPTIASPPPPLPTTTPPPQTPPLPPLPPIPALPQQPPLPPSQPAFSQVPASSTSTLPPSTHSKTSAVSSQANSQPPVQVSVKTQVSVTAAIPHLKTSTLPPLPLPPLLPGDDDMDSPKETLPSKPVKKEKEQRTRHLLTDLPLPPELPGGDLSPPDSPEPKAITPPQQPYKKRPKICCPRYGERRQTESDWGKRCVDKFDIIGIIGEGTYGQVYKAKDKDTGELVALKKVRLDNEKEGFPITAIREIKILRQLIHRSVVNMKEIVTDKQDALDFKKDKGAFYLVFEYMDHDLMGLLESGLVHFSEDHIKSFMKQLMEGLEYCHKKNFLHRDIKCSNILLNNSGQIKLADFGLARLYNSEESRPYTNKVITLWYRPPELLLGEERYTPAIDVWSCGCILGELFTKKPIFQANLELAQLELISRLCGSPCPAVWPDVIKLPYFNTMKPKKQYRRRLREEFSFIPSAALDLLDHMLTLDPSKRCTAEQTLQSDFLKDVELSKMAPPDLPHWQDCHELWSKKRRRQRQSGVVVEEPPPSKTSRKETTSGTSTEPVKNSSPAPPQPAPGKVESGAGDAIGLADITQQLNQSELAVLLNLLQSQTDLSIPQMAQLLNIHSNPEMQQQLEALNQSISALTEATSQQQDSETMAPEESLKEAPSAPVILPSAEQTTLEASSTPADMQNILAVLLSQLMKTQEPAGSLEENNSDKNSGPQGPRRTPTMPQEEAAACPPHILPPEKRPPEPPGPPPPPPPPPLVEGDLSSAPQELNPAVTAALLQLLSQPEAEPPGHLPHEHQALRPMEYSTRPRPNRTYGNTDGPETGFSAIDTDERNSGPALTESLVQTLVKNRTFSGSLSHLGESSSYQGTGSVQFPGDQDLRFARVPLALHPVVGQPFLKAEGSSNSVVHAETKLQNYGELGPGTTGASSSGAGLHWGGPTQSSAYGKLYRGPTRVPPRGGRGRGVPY
Chain of CDK12 (O75909 whole entry partner): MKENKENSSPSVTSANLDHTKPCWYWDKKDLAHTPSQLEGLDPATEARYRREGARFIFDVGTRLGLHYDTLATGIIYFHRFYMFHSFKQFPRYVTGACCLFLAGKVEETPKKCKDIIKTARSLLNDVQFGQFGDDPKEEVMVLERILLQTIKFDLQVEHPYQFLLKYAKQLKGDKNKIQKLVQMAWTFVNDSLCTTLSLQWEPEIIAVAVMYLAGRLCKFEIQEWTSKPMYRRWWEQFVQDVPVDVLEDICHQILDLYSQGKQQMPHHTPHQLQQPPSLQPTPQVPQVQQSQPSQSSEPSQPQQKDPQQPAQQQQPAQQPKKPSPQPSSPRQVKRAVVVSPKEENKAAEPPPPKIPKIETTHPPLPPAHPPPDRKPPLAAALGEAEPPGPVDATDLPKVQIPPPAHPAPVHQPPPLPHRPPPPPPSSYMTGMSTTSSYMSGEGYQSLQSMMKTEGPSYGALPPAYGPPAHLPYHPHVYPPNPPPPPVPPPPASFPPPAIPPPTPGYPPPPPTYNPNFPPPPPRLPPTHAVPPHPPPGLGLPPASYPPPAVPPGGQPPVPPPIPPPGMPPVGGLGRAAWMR

Experiment [2] deals with CDK13 (Homo sapiens, UniProt Q14004). The experiment is described as follows: Western blot degradation of CDK13 (Example 3). The experiment is classed as cell-based. Details: degradation of CDK12/13 protein in leukemia cells KASUMI-1, MV4-11, and Jurkat; endogenous in cells. Conditions: DC50 classes; cell line not given; read-out: CDK13 degradation Activity.
Chain of CDK13 (Q14004 whole entry): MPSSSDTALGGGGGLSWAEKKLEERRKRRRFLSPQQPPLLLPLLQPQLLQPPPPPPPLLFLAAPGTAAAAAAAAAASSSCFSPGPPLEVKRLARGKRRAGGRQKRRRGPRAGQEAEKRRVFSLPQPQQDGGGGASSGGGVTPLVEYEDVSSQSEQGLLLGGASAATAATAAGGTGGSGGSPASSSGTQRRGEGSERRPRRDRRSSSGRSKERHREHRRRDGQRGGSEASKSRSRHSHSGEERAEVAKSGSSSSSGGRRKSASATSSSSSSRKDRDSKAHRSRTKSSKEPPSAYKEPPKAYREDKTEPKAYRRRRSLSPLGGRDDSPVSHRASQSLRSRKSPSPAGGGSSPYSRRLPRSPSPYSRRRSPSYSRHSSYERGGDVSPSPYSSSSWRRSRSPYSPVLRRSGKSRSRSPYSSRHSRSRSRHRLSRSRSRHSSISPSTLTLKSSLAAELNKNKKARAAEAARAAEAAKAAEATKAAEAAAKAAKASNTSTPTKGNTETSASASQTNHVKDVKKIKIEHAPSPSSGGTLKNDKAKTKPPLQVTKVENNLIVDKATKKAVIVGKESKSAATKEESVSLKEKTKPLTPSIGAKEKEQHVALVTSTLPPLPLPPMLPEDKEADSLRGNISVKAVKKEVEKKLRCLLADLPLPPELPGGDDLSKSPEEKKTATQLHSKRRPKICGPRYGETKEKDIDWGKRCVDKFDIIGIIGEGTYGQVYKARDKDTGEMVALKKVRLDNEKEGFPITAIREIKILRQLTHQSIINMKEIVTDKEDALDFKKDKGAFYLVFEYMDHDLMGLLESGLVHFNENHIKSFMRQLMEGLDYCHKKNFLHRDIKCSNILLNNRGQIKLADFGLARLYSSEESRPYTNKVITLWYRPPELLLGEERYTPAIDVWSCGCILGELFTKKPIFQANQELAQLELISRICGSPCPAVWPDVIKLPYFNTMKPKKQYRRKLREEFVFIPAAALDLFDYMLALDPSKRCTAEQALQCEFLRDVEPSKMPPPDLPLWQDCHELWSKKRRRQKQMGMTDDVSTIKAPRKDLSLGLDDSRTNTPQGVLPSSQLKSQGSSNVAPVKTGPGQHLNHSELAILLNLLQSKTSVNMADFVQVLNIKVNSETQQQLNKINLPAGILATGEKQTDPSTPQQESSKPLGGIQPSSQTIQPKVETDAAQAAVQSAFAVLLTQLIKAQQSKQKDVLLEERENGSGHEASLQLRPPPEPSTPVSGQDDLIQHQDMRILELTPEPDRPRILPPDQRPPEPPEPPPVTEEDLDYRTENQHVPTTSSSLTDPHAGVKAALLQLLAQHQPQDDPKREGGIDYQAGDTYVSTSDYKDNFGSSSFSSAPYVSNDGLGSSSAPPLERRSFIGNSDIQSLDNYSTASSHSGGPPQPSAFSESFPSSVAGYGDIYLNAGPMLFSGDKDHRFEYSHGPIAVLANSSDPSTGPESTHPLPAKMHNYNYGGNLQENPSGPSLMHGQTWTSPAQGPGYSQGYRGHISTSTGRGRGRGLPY
Chain of CDK13 (O75909 whole entry partner): as the sequence (O75909 whole entry partner) above

Molecules are shown by their SMILES. A value given as a limit tells only on which side of the number the result lay.

In the case of `CC(=O)N(c1ccc(-c2ccc(N3CCN(c4cc(C(C(=O)N5C[C@H](O)C[C@H]5C(=O)N[C@@H](C)c5ccc(-c6scnc6C)cc5)C(C)C)on4)CC3)nc2)cc1)[C@H]1CC[C@@H](Nc2ncc3ccccc3n2)CC1` (single isomer, unassigned) [Formula 155], the DC50 in experiment [1] and in experiment [2] was under 100 nM throughout.

Take `CC(=O)N(c1ccc(-c2ccc(N3CCN(c4cnn([C@H](C(=O)N5C[C@H](O)C[C@H]5C(=O)N[C@@H](C)c5ccc(-c6scnc6C)cc5)C(C)C)c4)CC3)nc2)cc1)[C@H]1CC[C@H](Nc2ncc3ccccc3n2)CC1` [Formula 152, (2S,4R)-4-hydroxy-1-((S)-3-methyl-2-(4-(4-(5-(4-(N-((1R,4R)-4-(quinazolin-2-ylamino)cyclohexyl)acetamido)phenyl)pyridin-2-yl)piperazin-1-yl)-1H-pyrazol-1-yl)butanoyl)-N—((S)-1-(4-(4-methylthiazol-5-yl)phenyl)ethyl)pyrrolidine-2-carboxamide]: the DC50 in experiment [1] and in experiment [2] was 100 to 500 nM in each case.

Regarding `CC(=O)N(c1ccc(N2CCN(CC3CCN(c4ccc5c(c4)C(=O)N(C4CCC(=O)NC4=O)C5=O)CC3)CC2)cc1)[C@H]1CC[C@H](Nc2ncc3ccccc3n2)CC1` (stereo partly drawn) [Formula 106], the DC50 in experiment [1] and in experiment [2] was 500 to 1000 nM throughout.

For `CC(=O)N(c1ccc(-c2cnc(N3CCN(c4cc(C(C(=O)N5C[C@H](O)C[C@H]5C(=O)N[C@@H](C)c5ccc(-c6scnc6C)cc5)C(C)C)on4)CC3)nc2)cc1)[C@H]1CC[C@@H](Nc2ncc3ccccc3n2)CC1` (single isomer, unassigned) [Formula 156], the DC50 in experiment [1] and in experiment [2] was under 100 nM in each case.

Regarding `CC(=O)N(c1ccc(-c2cnn(C3CCN(c4ccc5c(c4)C(=O)N(C4CCC(=O)NC4=O)C5=O)C3)c2)cc1)[C@H]1CC[C@H](Nc2ncc3ccccc3n2)CC1` (stereo partly drawn) [Formula 116, N-(4-(1-(1-(2-(2,6-dioxopiperidin-3-yl)-1,3-dioxoisoindolin-5-yl)pyrrolidin-3-yl)-1H-pyrazol-4-yl)phenyl)-N-((1R,4R)-4-(quinazolin-2-ylamino)cyclohexyl)acetamide], the DC50 in experiment [1] and in experiment [2] was 3000 to 10000 nM in each case.

As for `CC(=O)N(c1ccc(-c2cnc(N3C[C@H]4C[C@@H]3CN4CC(=O)N[C@H](C(=O)N3C[C@H](O)C[C@H]3C(=O)N[C@@H](C)c3ccc(-c4scnc4C)cc3)C(C)(C)C)nc2)cc1)[C@H]1CC[C@H](Nc2ncc3ccccc3n2)CC1` [Formula 144, (2S,4R)-1-((S)-3,3-dimethyl-2-(2-((1R,4R)-5-(5-(4-(N-((1r,4S)-4-(quinazolin-2-ylamino)cyclohexyl)acetamido)phenyl)pyrimidin-2-yl)-2,5-diazabicyclo[2.2.1]heptan-2-yl)acetamido)butanoyl)-4-hydroxy-N—((S)-1-(4-(4-methylthiazol-5-yl)phenyl)ethyl)pyrrolidine-2-carboxamide], the results for the DC50 in experiment [1] and in experiment [2] were under 100 nM and 100 to 500 nM, respectively.

Consider `CC(=O)N(c1ccc(-c2ccc(CN3CCN(c4ccc5c(c4)C(=O)N(C4CCC(=O)NC4=O)C5=O)CC3)nc2)cc1)[C@H]1CC[C@H](Nc2ncc3ccccc3n2)CC1` (stereo partly drawn) [Formula 102, N-(4-(6-((4-(2-(2,6-dioxopiperidin-3-yl)-1,3-dioxoisoindolin-5-yl)piperazin-1-yl)methyl)pyridin-3-yl)phenyl)-N-((1R,4R)-4-(quinazolin-2-ylamino)cyclohexyl)acetamide], for which the values for the DC50 in experiment [1] and in experiment [2] were 500 to 1000 nM and 100 to 500 nM, respectively.

`CC(=O)N(c1ccc(N2CCN(CC3CCN(c4ccc5c(c4)C(=O)N(C4CCC(=O)NC4=O)C5=O)C3)CC2)cc1)[C@H]1CC[C@H](Nc2ncc3ccccc3n2)CC1` (stereo partly drawn) [Formula 126, N-(4-(4-((1-(2-(2,6-dioxopiperidin-3-yl)-1,3-dioxoisoindolin-5-yl)pyrrolidin-3-yl)methyl)piperazin-1-yl)phenyl)-N-((1R,4R)-4-(quinazolin-2-ylamino)cyclohexyl)acetamide]: the values for the DC50 in experiment [1] and in experiment [2] were 1000 to 3000 nM and 3000 to 10000 nM, respectively.

On to `CC(=O)N(c1ccc(-c2cnc(OCC3CCN(CC(=O)N[C@H](C(=O)N4C[C@H](O)C[C@H]4C(=O)N[C@@H](C)c4ccc(-c5scnc5C)cc4)C(C)(C)C)CC3)nc2)cc1)[C@H]1CC[C@H](Nc2ncc3ccccc3n2)CC1` [Formula 134, (2S,4R)-1-((S)-3,3-dimethyl-2-(2-(4-(((5-(4-(N-((1R,4R)-4-(quinazolin-2-ylamino)cyclohexyl)acetamido)phenyl)pyrimidin-2-yl)oxy)methyl)piperidin-1-yl)acetamido)butanoyl)-4-hydroxy-N—((S)-1-(4-(4-methylthiazol-5-yl)phenyl)ethyl)pyrrolidine-2-carboxamide], for which the DC50 in experiment [1] and in experiment [2] was 500 to 1000 nM in each case.

In the case of `CC(=O)N(c1ccc(N2CCC3(CC2)CCN(c2ccc4c(c2)C(=O)N(C2CCC(=O)NC2=O)C4=O)CC3)cc1)[C@H]1CC[C@H](Nc2ncc3ccccc3n2)CC1` (stereo partly drawn) [Formula 120, N-(4-(9-(2-(2,6-dioxopiperidin-3-yl)-1,3-dioxoisoindolin-5-yl)-3,9-diazaspiro[5.5]undecan-3-yl)phenyl)-N-((1R,4R)-4-(quinazolin-2-ylamino)cyclohexyl)acetamide], the DC50 in experiment [1] and in experiment [2] was 3000 to 10000 nM in each case.

For the compound `CC(=O)N(c1ccc(-c2cnc(O[C@H]3CCN(c4ccc5c(c4)C(=O)N(C4CCC(=O)NC4=O)C5=O)C3)nc2)cc1)[C@H]1CC[C@H](Nc2ncc3ccccc3n2)CC1` (stereo partly drawn) [Formula 110, N-(4-(2-(((3S)-1-(2-(2,6-dioxopiperidin-3-yl)-1,3-dioxoisoindolin-5-yl)pyrrolidin-3-yl)oxy)pyrimidin-5-yl)phenyl)-N-((1R,4R)-4-(quinazolin-2-ylamino)cyclohexyl)acetamide], the DC50 in experiment [1] is 1000 to 3000 nM; in experiment [2], 500 to 1000 nM.

With `CC(=O)N(c1ccc(-c2cnc(N3CCN(Cc4cnn([C@H](C(=O)N5C[C@H](O)C[C@H]5C(=O)N[C@@H](C)c5ccc(-c6scnc6C)cc5)C(C)C)c4)CC3)nc2)cc1)[C@H]1CC[C@H](Nc2ncc3ccccc3n2)CC1` [Formula 153, (2S,4R)-4-hydroxy-1-((S)-3-methyl-2-(4-((4-(5-(4-(N-((1R,4R)-4-(quinazolin-2-ylamino)cyclohexyl)acetamido)phenyl)pyrimidin-2-yl)piperazin-1-yl)methyl)-1H-pyrazol-1-yl)butanoyl)-N—((S)-1-(4-(4-methylthiazol-5-yl)phenyl)ethyl)pyrrolidine-2-carboxamide], the figures for the DC50 in experiment [1] and in experiment [2] were 100 to 500 nM and under 100 nM, respectively.

As for `CC(=O)N(c1ccc(-c2ccc(N3C[C@@H]4C[C@H]3CN4CC(=O)N[C@H](C(=O)N3C[C@H](O)C[C@H]3C(=O)N[C@@H](C)c3ccc(-c4scnc4C)cc3)C(C)(C)C)nc2)cc1)[C@H]1CC[C@H](Nc2ncc3ccccc3n2)CC1` [Formula 141, (2S,4R)-1-((S)-3,3-dimethyl-2-(2-((1S,4S)-5-(5-(4-(N-((1R,4S)-4-(quinazolin-2-ylamino)cyclohexyl)acetamido)phenyl)pyridin-2-yl)-2,5-diazabicyclo[2.2.1]heptan-2-yl)acetamido)butanoyl)-4-hydroxy-N—((S)-1-(4-(4-methylthiazol-5-yl)phenyl)ethyl)pyrrolidine-2-carboxamide], the DC50 is under 100 nM in experiment [1] and 100 to 500 nM in experiment [2].

Turning to `CC(=O)N(c1ccc(-c2cnc(N3C[C@@H]4C[C@H]3CN4CC(=O)N[C@H](C(=O)N3C[C@H](O)C[C@H]3C(=O)N[C@@H](C)c3ccc(-c4scnc4C)cc3)C(C)(C)C)nc2)cc1)[C@H]1CC[C@H](Nc2ncc3ccccc3n2)CC1` [Formula 142, (2S,4R)-1-((S)-3,3-dimethyl-2-(2-((1S,4S)-5-(5-(4-(N-((1R,4S)-4-(quinazolin-2-ylamino)cyclohexyl)acetamido)phenyl)pyrimidin-2-yl)-2,5-diazabicyclo[2.2.1]heptan-2-yl)acetamido)butanoyl)-4-hydroxy-N—((S)-1-(4-(4-methylthiazol-5-yl)phenyl)ethyl)pyrrolidine-2-carboxamide], the DC50 in experiment [1] and in experiment [2] was under 100 nM each time.

With `CC(=O)N(c1ccc(N2CCN(C3CCN(c4ccc5c(c4)C(=O)N(C4CCC(=O)NC4=O)C5=O)CC3)CC2)cc1)[C@H]1CC[C@H](Nc2ncc3ccccc3n2)CC1` (stereo partly drawn) [Formula 123, N-(4-(4-(1-(2-(2,6-dioxopiperidin-3-yl)-1,3-dioxoisoindolin-5-yl)piperidin-4-yl)piperazin-1-yl)phenyl)-N-((1R,4R)-4-(quinazolin-2-ylamino)cyclohexyl)acetamide], the DC50 in experiment [1] was 100 to 500 nM; in experiment [2], 500 to 1000 nM.

With `CC(=O)N(c1ccc(-c2ccc(OCCOCC(=O)N[C@H](C(=O)N3C[C@H](O)C[C@H]3C(=O)N[C@@H](C)c3ccc(-c4scnc4C)cc3)C(C)(C)C)nc2)cc1)[C@H]1CC[C@H](Nc2ncc3ccccc3n2)CC1` [Formula 131, (2S,4R)-1-((S)-3,3-dimethyl-2-(2-(2-((5-(4-(N-((1R,4R)-4-(quinazolin-2-ylamino)cyclohexyl)acetamido)phenyl)pyridin-2-yl)oxy)ethoxy)acetamido)butanoyl)-4-hydroxy-N—((S)-1-(4-(4-methylthiazol-5-yl)phenyl)ethyl)pyrrolidine-2-carboxamide], the DC50 in experiment [1] and in experiment [2] was 500 to 1000 nM throughout.

With `CC(=O)N(c1ccc(N2CCC3(CC2)CCN(c2ccc4c(c2)C(=O)N(C2CCC(=O)NC2=O)C4=O)C3)cc1)[C@H]1CC[C@H](Nc2ncc3ccccc3n2)CC1` (stereo partly drawn) [Formula 119, N-(4-(2-(2-(2,6-dioxopiperidin-3-yl)-1,3-dioxoisoindolin-5-yl)-2,8-diazaspiro[4.5]decan-8-yl)phenyl)-N-((1R,4R)-4-(quinazolin-2-ylamino)cyclohexyl)acetamide], the DC50 in experiment [1] lay in the range of 1000 to 3000 nM.
